This note sets out measurements from US20090233938A1, “Thiazole derivatives as a2b antagonists” (priority 2004, published 2009).

Molecules are shown by their SMILES.

One data set has as its target T1, human adenosine A2b receptor (Homo sapiens, UniProt P29275).
T1 construct: expressed in transfected cells; host or cells: CHO cells co-transfected with reporter plasmid pCRE-LUCI and pA2bRCV
T1 sequence (P29275 1-332): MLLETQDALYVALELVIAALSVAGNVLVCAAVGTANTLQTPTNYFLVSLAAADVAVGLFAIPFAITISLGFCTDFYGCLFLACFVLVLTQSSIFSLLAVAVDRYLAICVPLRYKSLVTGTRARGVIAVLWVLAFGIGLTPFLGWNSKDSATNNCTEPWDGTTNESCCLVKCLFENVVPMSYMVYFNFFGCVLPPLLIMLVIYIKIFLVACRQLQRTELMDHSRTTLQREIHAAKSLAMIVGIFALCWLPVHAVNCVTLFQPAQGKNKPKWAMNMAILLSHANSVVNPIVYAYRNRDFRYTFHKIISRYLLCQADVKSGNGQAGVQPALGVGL
Briefly: Adenosine A2b receptor reporter gene assay (luciferase, CHO-A2b cells, NECA agonist). Format: cell-based. Conditions: CHO cells with pCRE-LUCI and human A2b receptor; antagonist at 100 nM or 1 μM; shift of NECA concentration-response curve; KB=[antagonist]/(concentration ratio−1). The method, then:
Adenosine A2b Receptor Reporter Gene Assay a) Culturing of Chinese Hamster Ovary (CHO) A2b Cell Line
CHO cells transfected with a Luciferase-expressing reporter plasmid (pCRE-LUCI) and with a plasmid carrying the human adenosine A2b receptor structural gene (pA2bRCV) are routinely cultured in Dulbecco's Modified Eagle Medium (DMEM)—supplemented with 10% v/v fetal calf serum (FCS), 2 mM L-glutamine, 0.4 mg/ml L-proline, 1 nM sodium selenite, 0.5 mg/ml Hygromycin B and 1 mg/ml Geneticin—at 37° C., 5% CO2 and 100% humidity. The cells are left to grow to confluence for 4-5 days. The cells obtained are passaged using trypsin/EDTA and split at a ratio of 1 in 5. […]
b) Preparation of Cells for Assay
Prior to the assay, the CHO-A2b cells are plated onto white 96-well View Plate tissue culture plates (Packard) at a density of 50,000 cells per well in 50 μl of DMEM, and the plates are incubated at 37° C., 5% CO2 and 100% humidity. […]
c) Preparation of Reference and Test Compounds
10 mM solutions of the reference compound, Xanthine Amine Cogener (XAC), and the test compound in dimethyl sulfoxide (DMSO) are prepared. The solutions are further diluted with DMSO to 100 μM, then diluted to 10 μM, and finally to 250 nM or 2.5 μM with Assay Buffer (DMEM Phenol Red-free tissue culture media supplemented with 10 μM Rolipram and 10 U/ml adenosine deaminase (ADA). The resulting solutions (40 μl) are added to the cells in the appropriate wells, the final concentration per well being 100 nM or 1 μM, and the plates are incubated at 37° C., 5% CO2 and 100% humidity. […]
d) Luciferase Reporter Gene Assay
5′-N-ethylcarboxamidoadenosine (NECA), an adenosine A2b agonist, is prepared as a […] solution in DMSO and then diluted to 100 μM with Assay Buffer. This solution is serially diluted in Assay Buffer to give a series of 10 NECA concentrations from 100 to 0.01 μM. 10 μl portions of the resulting NECA solutions are added to the mixtures of CHO-A2b cells and reference or test compound solutions prepared as described above (preincubated for 30 minutes), final concentrations ranging from […] per well. The cells are incubated at 37° C., 5% CO2 and 100% humidity for 3 hours to induce release of cAMP, which then binds to cAMP binding protein (CBP) and the resulting complex interacts with the reporter plasmid to express Luciferase. 100 μl of Steady-Glo, a Luciferase assay substrate from Promega, is added to all wells to lyse the cells and generate luminescence in proportion to the amount of Lucifrease produced. The plates are left for a minimum of 5 minutes before being read on the luminescence program of a Topcount NXT microplate scintillation counter (ex Packard). Concentration—response curves are plotted from the luminescence data using Activity base software and KB values for the antagonists under test are calculated from the shifts of the curve at a particular concentration (KB=[antagonist]/(concentration ratio−1)
Take `Cc1ccnc(Nc2nc(-c3cccc(C#N)c3)c(-c3ccncn3)s2)c1` [Example 4]: the Kb is 38 nM.
The same measure, in the same setting: next, `N#Cc1cccc(Nc2nc(-c3cccc(C#N)c3)c(-c3ccncn3)s2)c1` [Example 6]: 29 nM; `N#Cc1cccc(-c2nc(Nc3ccccn3)sc2-c2ccncn2)c1` [Example 9]: 6 nM; `N#Cc1cccc(-c2nc(Nc3cnccn3)sc2-c2ccncn2)c1` [Example 12, 3-[2-(Pyrazin-2-ylamino)-5-pyrimidin-4-yl-thiazol-4-yl]-benzonitrile]: 2 nM.
On the same count and under the same terms, next, `CN(C)c1cc(-c2sc(Nc3cccc(F)c3)nc2-c2cccc(C#N)c2)cnn1` [Example 16]: 50 nM.

Test system in another data set: not given
Test: not given
Settings: not given
Compound `COc1cccc(C(=O)Nc2nc(-c3cccc(C#N)c3)c(-c3ccncn3)s2)c1` [Example 11, N-[4-(3-Cyano-phenyl)-5-pyrimidin-4-yl-thiazol-2-yl]-3-methoxy-benzamide] gave a melting point of 255 to 256 °C.
On the same count and under the same terms, next, `N#Cc1cccc(-c2nc(Nc3cnccn3)sc2-c2ccncn2)c1` [Example 12, 3-[2-(Pyrazin-2-ylamino)-5-pyrimidin-4-yl-thiazol-4-yl]-benzonitrile]: more than 280 °C; `N#Cc1cccc(-c2nc(Nc3ccc(C(=O)O)cc3)sc2-c2ccnnc2)c1` [Example 15, 4-[4-(3-Cyano-phenyl)-5-pyridazin-4-yl-thiazol-2-ylamino]-benzoic acid]: more than 275 °C.
